In PMC7076525, “Pharmacokinetics and Intestinal Metabolism of Compound K in Rats and Mice” (Pharmaceutics, 2020):
In brackets after ≈: the same amount, converted by molar mass. Several values for one entry are separate records, joined by “and”; a condition that tells them apart may be missing. Equal values may be shown once.

Legend:
Caco-2 cells = test system: Caco-2 cells; parameters: method as in PMID 16302287, PMID 32148404, PMID 30013338, PMID 26680316; conditions: cited from earlier work
[1] = parameters: method as in PMID 22584255, PMID 30013338, PMID 26680316; conditions: cited from earlier work
[2] = parameters: method as in PMID 16302287, PMID 32148404, PMID 30013338, PMID 26680316; conditions: cited from earlier work
[3] = Pharmacokinetic study after intravenous compound K (2 mg/kg) in SD rats: plasma, feces, urine
[4] = Tissue distribution study after intravenous compound K (2 mg/kg) in ICR mice; format: in vivo; conditions: compound K IV 2 mg/kg
Protocol: ICR mice and SD rats received compound K intravenously at a single dose of 2 mg/kg via tail vein and were returned to the metabolic cage with water and chow ad libitum. The animals were euthanized and blood samples (approximately 200 µL) were collected from the abdominal artery at 0.17, 0.5, 2, 4, 8, and 24 h after intravenous injection. The liver, kidney, brain, heart, lung, spleen, and testis were immediately excised, gently washed with ice-cold saline, and weighed. The tissue samples were homogenized with 4 volumes of saline. Aliquots (50 μL) of plasma and 20% tissue homogenates were stored at –80 °C until the analysis of compound K.
The plasma samples and 20% tissue homogenates samples were each mixed with 60 μL of IS (20 ng/mL 13C-caffeine in water) and 600 μL of MTBE. The mixtures were vortexed vigorously for 10 min and centrifuged at 16,000× g for 5 min. After centrifugation, the samples were frozen at −80 °C for 2 h. The upper layer was transferred to a clean tube and evaporated to dryness under a nitrogen stream. The residue was reconfigured with 200 μL of 80% methanol consisting of 0.1% formic acid, and a 10 μL aliquot was injected into the LC-MS/MS system.
Compound K and PPD concentrations were analyzed using a modified LC-MS/MS method of Jin et al. with an Agilent 6430 triple quadrupole LC-MS/MS system (Agilent, Wilmington, DE, USA). […]

[5] = Pharmacokinetic study after intravenous compound K (2 mg/kg) in ICR mice: plasma, feces, urine; conditions: mouse
P-glycoprotein (P-gp) = test system: P-glycoprotein (P-gp); parameters: method as in PMID 22584255; conditions: single oral dose 10 mg/kg; cited from earlier work
Oatp transporters = assay: Inhibition of hepatic uptake of compound K by rifampin pre-treatment in SD rats; format: in vivo; conditions: rifampin 20 mg/kg PO 1 h before compound K IV 2 mg/kg, 0.5 and 2 h
Protocol: To investigate the effect of rifampin (a representative inhibitor of the organic anion-transporting polypeptide (Oatp) transporters) on the hepatic distribution of compound K, ICR mice and SD rats were randomly divided into either control or rifampin groups. The rifampin group was orally administered with rifampin solution (20 mg/kg, dissolved in DMSO: saline = 2:8, v/v) and the control group received only the vehicle via oral gavage. One hour after rifampin treatment, mice and rats received compound K intravenously at a single dose of 2 mg/kg via tail vein. The animals were euthanized and blood samples (approximately 200 µL) were collected from the abdominal artery at 0.5 and 2 h after intravenous injection. The liver tissues were immediately excised, gently washed with ice-cold saline, and homogenized with 4 volumes of saline. Aliquots (50 μL) of plasma and 20% liver homogenates were stored at −80 °C until the analysis of compound K.
The plasma samples and 20% tissue homogenates samples were each mixed with 60 μL of IS (20 ng/mL 13C-caffeine in water) and 600 μL of MTBE. The mixtures were vortexed vigorously for 10 min and centrifuged at 16,000× g for 5 min. After centrifugation, the samples were frozen at −80 °C for 2 h. The upper layer was transferred to a clean tube and evaporated to dryness under a nitrogen stream. […]

[6] = after compound K IV 2 mg/kg, over 48 h (Table 4)

CC(C)=CCCC(C)(OC1OC(CO)C(O)C(O)C1O)C1CCC2(C)C1C(O)CC1C3(C)CCC(O)C(C)(C)C3CCC12C [compound K, 20-O-beta-(D-Glucopyranosyl)-20(S)-protopanaxadiol]
permeability (Caco-2 cells): 0.5–2 × 10^−6 cm/s | aqueous solubility [1]: 33 µg/mL (≈ 53 µM) | LogP value [2]: 3.85 | AUC(0-inf) ([3]; SD, rat, plasma, iv, 2 mg/kg): 670 ± 284 ng·h/mL | AUC(0-t) ([3]; SD, rat, plasma, iv, 2 mg/kg): 639 ± 299 ng·h/mL | C0 ([3]; SD, rat, plasma, iv, 2 mg/kg): 75.3 ± 23.3 ng/mL | MRT ([3]; SD, rat, plasma, iv, 2 mg/kg): 8.9 ± 0.4 h | Vd ([3]; SD, rat, plasma, iv, 2 mg/kg): 31.8 ± 3.1 L/kg | clearance ([3]; SD, rat, plasma, iv, 2 mg/kg): 59 ± 21.8 mL/min/kg | half-life ([3]; SD, rat, plasma, iv, 2 mg/kg): 7.3 ± 0.4 h | Recovery48 h Feces ([3]; rat, after compound K IV 2 mg/kg, over 48 h (Table 4)): 13.8 ± 7.1 % of Dose | Feces48 h (fecal recovery) ([3]; rat, compound K IV 2 mg/kg, 48 h, 2 mg/kg): 13.8 % of dose and ~13.8 ± 7.1 % of dose | CL and Vd, fold larger in rats than in mice ([3]; rats versus mice, compound K IV 2 mg/kg): about five-fold larger | AUC ratios of other tissues (kidney, heart, lung, pancreas, testis, brain) to plasma [4]: much lower than the liver/plasma AUC ratio | Kp ([4]; male, ICR, mouse, liver (relative to plasma), 0.17-24 h, read-out: liver to plasma AUC ratio): 16.7 | AUC(0-t) ([5]; ICR, plasma, iv, 2 mg/kg): 3760 ± 1640 ng·h/mL | C0 ([5]; ICR, plasma, iv, 2 mg/kg): 400 ± 137 ng/mL | MRT ([5]; ICR, plasma, iv, 2 mg/kg): 11.8 ± 2 h | Vd ([5]; ICR, plasma, iv, 2 mg/kg): 7.08 ± 2.6 L/kg | clearance ([5]; ICR, plasma, iv, 2 mg/kg): 10.4 ± 4.9 mL/min/kg | half-life ([5]; ICR, plasma, iv, 2 mg/kg): 11.4 ± 1.5 h | Recovery48 h Feces [5, 6]: 28.4 ± 5.9 % of Dose | Recovery48 h Urine [5, 6]: 0.02 ± 0.01 % of Dose | AUC increase in P-gp knock-out mice compared to wild-type mice (P-glycoprotein (P-gp)): 23.5 fold | liver to plasma concentration ratios with rifampin pre-treatment versus control (Oatp transporters): decreased | plasma concentration of compound K with rifampin pre-treatment versus control (Oatp transporters): increased
